In general, EC50 refers to the concentration that produces a half-maximal response.

The text below walks through data of patent publication US20230382924A1, “MODULATORS OF CYSTIC FIBROSIS TRANSMEMBRANE CONDUCTANCE REGULATOR” (VERTEX PHARMACEUTICALS INCORPORATED, priority 2020, published 2023).

For series [1] the following is noted: from Cc1cccc(C)c1-c1cc(OC(CN)c2ccc(Br)cc2)nc(NS(=O)(=O)c2cccc(C(=O)O)c2)n1; amide bond; 13-membered ring; FDPP/DIEA; DMF; 36.8 mM; 25.0 °C; 1.0 h.
The conditions of series [2]: amide bond, 13-membered ring.
The target of series [3] is T1, CFTR (Homo sapiens, UniProt P13569). Briefly: standard Ussing Chamber Assay for CFTR potentiator activity. It is filed as cell-based.
Target sequence in this assay (P13569 whole entry, species assumed): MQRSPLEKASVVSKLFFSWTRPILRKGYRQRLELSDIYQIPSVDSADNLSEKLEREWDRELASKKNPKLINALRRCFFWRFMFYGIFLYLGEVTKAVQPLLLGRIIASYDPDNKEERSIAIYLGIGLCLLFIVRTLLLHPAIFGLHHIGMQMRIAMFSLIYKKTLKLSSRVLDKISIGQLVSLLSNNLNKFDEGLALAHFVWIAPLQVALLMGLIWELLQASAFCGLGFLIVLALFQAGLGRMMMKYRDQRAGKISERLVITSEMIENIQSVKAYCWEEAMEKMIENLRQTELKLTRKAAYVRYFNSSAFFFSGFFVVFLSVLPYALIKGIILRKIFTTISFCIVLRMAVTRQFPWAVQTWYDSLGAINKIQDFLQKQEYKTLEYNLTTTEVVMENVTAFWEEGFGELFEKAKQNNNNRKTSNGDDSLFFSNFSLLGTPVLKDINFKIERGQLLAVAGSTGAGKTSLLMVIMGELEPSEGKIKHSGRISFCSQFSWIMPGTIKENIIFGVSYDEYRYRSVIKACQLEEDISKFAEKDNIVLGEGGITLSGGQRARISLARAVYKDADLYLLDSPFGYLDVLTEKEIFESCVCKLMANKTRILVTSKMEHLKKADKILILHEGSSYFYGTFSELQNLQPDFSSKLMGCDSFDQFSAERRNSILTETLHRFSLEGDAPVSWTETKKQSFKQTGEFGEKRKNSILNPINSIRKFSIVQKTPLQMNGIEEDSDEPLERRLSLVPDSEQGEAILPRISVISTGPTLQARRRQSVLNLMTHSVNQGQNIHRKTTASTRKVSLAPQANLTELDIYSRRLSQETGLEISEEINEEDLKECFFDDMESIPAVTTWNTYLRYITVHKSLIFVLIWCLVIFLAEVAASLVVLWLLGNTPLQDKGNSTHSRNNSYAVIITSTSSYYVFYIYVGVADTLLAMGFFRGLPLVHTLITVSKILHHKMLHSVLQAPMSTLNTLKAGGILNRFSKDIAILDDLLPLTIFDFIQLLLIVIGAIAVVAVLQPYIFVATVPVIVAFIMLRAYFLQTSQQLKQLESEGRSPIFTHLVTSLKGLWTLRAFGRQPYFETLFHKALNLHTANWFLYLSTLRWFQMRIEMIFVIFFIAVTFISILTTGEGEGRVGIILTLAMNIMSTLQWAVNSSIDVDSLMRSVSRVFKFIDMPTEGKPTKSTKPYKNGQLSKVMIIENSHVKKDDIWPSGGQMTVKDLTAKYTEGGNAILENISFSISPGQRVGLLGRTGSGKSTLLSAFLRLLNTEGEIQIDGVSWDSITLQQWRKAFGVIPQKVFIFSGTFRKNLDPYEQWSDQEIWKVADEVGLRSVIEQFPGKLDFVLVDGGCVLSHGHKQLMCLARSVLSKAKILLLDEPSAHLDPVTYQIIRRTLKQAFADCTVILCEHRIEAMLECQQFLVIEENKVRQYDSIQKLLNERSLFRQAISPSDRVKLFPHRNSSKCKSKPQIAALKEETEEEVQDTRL
For series [4], the target named is T1, CFTR. The experiment in a line: Membrane Potential Dye, Enteroid Assay B. The class given is cell-based. To be noted: for EC50: read-out: Ent. B EC50. The method, boiled down: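 Enteroid cells loaded 25 min at room temperature with 20 μM methyl oxonol plus 30 μM CaCCinh-A01 and 30 μM Chicago Sky Blue, then switched to chloride-free gluconate buffer. Chloride transport was started by chloride-free stimulation solution, with fluorescence read for 15 min.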
Target sequence in this assay (P13569 with tags, fused parts or gaps DEL508-508): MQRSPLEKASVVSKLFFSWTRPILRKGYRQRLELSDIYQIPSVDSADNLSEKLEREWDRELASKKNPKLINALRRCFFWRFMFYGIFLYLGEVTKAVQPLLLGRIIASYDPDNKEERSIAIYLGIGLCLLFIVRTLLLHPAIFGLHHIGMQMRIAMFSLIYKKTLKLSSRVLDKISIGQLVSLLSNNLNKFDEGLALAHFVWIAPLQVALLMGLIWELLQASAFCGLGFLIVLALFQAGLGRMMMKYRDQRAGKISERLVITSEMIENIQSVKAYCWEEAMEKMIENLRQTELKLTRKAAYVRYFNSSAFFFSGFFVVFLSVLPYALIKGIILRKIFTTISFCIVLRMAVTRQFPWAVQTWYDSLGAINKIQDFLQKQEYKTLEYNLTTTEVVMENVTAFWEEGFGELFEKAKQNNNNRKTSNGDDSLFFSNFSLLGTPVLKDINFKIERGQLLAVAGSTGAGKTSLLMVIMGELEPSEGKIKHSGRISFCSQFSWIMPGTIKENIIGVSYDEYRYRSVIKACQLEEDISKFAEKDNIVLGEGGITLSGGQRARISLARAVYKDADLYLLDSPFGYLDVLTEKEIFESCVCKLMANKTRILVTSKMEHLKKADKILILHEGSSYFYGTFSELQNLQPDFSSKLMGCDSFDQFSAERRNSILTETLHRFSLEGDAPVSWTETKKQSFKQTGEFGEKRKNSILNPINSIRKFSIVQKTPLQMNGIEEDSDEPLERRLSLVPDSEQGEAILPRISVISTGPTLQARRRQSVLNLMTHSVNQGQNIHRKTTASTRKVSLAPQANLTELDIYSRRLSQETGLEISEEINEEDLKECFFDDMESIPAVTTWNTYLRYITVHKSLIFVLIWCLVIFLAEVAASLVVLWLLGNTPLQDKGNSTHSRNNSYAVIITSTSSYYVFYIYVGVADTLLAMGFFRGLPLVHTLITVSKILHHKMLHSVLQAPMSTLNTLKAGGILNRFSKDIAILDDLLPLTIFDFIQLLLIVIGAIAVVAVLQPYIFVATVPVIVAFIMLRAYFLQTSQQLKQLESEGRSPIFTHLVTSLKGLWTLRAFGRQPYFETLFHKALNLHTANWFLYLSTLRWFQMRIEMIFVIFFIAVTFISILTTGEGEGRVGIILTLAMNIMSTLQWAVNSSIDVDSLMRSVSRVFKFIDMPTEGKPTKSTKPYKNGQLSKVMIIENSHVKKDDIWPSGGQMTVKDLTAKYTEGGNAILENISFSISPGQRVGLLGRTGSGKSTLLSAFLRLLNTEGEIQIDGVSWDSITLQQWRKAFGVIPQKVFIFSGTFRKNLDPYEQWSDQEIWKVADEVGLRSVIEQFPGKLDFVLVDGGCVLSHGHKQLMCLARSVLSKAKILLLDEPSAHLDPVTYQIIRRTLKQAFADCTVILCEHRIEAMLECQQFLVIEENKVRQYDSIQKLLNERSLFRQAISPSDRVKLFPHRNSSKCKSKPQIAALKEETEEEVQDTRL

The target of another series is T2, F508del (Homo sapiens, UniProt P13569, DEL508-508).
T2 construct: expressed in transfected cells
Briefly: 3T3 assay: membrane potential optical assay for F508del correction in NIH 3T3 cells. The note with it: Table 8. It is filed as cell-based. The method, boiled down: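 NIH 3T3 mouse fibroblasts stably expressing F508del were incubated with corrector compounds at a range of concentrations for 16–24 h at 37° C, then loaded with a redistribution voltage-sensing dye. A single addition of forskolin under a chloride gradient (gluconate-substituted bath, pH 7.4) gave the membrane-potential response, read by FLIPR.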

Series [5] deals with T1, CFTR. Briefly: Membrane Potential Dye, Enteroid Assay A. It is filed as cell-based. To be noted: for EC50: read-out: Ent. A EC50. The method, boiled down: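 Signal is reported as % Activity relative to a triple CFTR modulator control (3 μM + 3 μM + 300 nM acute). Read-out: membrane potential fluorescence (20 μM methyl oxonol) monitored for 15 min after chloride-free stimulation. Dye loading took 25 min at room temperature in Bath 1 buffer containing CaCC blockers.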
Target sequence in this assay (P13569 with tags, fused parts or gaps DEL508-508): as above

Where two headings read alike, the source gives them in different places.

T2 sequence (P13569 with tags, fused parts or gaps DEL508-508): as above

Take `Cc1cccc(C)c1-c1cc2nc(n1)NS(=O)(=O)c1cccc(c1)C(=O)NCC(c1ccc(Br)cc1)O2` (stereo not drawn): in series [1], the ring closure, yield after HPLC came to 52%. The ring closure, isolated yield in series [2] (from Cc1cccc(C)c1-c1cc(OC(CN)c2ccc(Br)cc2)nc(NS(=O)(=O)c2cccc(C(=O)O)c2)n1, HATU/DIEA, DMF, 26.4 mM, 25.0 °C, 2.0 h) is 25%.

Consider `C[C@@H]1CCCCC[C@](O)(C(F)(F)F)C2=NN=C(O2)c2nc(c(C(F)(F)F)cc2N)O1` [(6R,12R)-17-amino-12-methyl-6,15-bis(trifluoromethyl)-13,19-dioxa-3,4,18-triazatricyclo[12.3.1.12,5]nonadeca-1(18),2,4,14,16-pentaen-6-ol], for which the CFTR modulatory activity result on CFTR [3] was “confirmed”.

Turning to `Cc1cccc(C)c1-c1cc2nc(n1)NS(=O)(=O)c1cccc(c1)C(=O)N[C@H](C)[C@@H](c1ccc(C(C)(C)C)cc1)O2` [Compound 38, (10R,11R)-10-(4-tert-Butylphenyl)-6-(2,6-dimethylphenyl)-11-methyl-9-oxa-2λ^6-thia-3,5,12,19-tetraazatricyclo[12.3.1.14,8]nonadeca-1(18),4,6,8(19),14,16-hexaene-2,2,13-trione], at CFTR [4] (Table 8), the “Ent. B Max Activity” value is “+++ (+++ is >60%)” and the EC50 is < 1000 nM. In series [2] (from Cc1cccc(C)c1-c1cc(O[C@H](c2ccc(C(C)(C)C)cc2)[C@@H](C)N)nc(NS(=O)(=O)c2cccc(C(=O)O)c2)n1, HATU/NaOtBu, DMF/MeTHF, 52.6 mM, 25.0 °C, 16.0 h, 2 steps), this compound returned a ring closure, isolated yield of 39%. Besides, the Emax on F508del (NIH3T3, read-out: 3T3 Max Activity) is > 60%. Besides, the EC50 on F508del was < 1000 nM. Further, at CFTR [5] (Table 8), the “Ent. A Max Activity” value is listed as “+++ (+++ is >60%)” and the EC50 was < 1000 nM.

Consider `Cc1cccc(C)c1-c1cc2nc(n1)NS(=O)(=O)c1cccc(c1)C(=O)N[C@@H]1CN(C(=O)OC(C)(C)C)C[C@H]1O2` [Compound 57, tert-Butyl (3R,7R)-19-(2,6-dimethylphenyl)-9,15,15-trioxo-2-oxa-15λ^6-thia-5,8,16,18,21-pentaazatetracyclo[15.3.1.110,14.03,7]docosa-1(20),10(22),11,13,17(21),18-hexaene-5-carboxylate], for which, on CFTR [4] (Table 9), the “Ent. B Max Activity” value is reported as “+++ (+++ is >60%)” and the EC50 was in the range of 1000 to 3000 nM. In addition, in series [2] (from Cc1cccc(C)c1-c1cc(O[C@@H]2CN(C(=O)OC(C)(C)C)C[C@H]2N)nc(NS(=O)(=O)c2cccc(C(=O)O)c2)n1, HATU/DIEA, DMF, 17.1 mM, 72.0 h), the ring closure, isolated yield was 18%. In addition, at CFTR [5] (Table 9), the “Ent. A Max Activity” value is on record as “+++ (+++ is >60%)” and the EC50 was in the range of 1000 to 3000 nM.
